Holding throughout (experiment): PKC assay
The target in test [1] is Protein kinase C eta type (Homo sapiens, UniProt P24723). The protocol:
(§1) The activity of PKC, activated by phosphatidylerine and Ca2+, is measured by its ability to transfer phosphate from [gamma-32P]ATP to lysine-rich histone.

The target of test [2] is T1, Protein kinase C epsilon type (Homo sapiens, UniProt Q02156).
T1 sequence (Q02156 whole entry): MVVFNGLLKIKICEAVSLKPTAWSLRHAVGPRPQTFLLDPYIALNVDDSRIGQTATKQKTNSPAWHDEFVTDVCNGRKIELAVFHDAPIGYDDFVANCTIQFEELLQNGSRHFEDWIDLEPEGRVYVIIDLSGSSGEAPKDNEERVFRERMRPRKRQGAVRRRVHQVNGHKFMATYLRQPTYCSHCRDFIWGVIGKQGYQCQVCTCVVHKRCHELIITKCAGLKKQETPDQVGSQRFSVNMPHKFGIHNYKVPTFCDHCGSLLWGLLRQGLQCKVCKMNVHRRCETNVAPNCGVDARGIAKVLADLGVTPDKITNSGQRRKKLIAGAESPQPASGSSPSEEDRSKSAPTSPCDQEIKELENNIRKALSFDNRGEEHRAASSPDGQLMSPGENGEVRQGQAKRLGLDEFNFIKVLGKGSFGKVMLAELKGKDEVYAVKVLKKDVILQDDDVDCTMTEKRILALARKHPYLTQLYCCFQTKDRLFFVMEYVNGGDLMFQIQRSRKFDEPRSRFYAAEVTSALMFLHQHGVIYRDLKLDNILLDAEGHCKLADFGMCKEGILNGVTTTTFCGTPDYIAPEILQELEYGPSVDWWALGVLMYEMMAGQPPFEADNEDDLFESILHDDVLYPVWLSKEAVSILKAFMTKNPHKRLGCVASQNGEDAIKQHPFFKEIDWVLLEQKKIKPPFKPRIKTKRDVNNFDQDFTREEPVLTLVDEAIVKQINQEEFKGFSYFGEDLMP
The protocol:
as §1

Test [3] addresses Protein kinase C beta type (Homo sapiens, UniProt P05771). The protocol:
as §1

In test [4] the target is Protein kinase C delta type (Homo sapiens, UniProt Q05655). The protocol: as §1
Protein kinase C delta type, sequence (Q05655 whole entry): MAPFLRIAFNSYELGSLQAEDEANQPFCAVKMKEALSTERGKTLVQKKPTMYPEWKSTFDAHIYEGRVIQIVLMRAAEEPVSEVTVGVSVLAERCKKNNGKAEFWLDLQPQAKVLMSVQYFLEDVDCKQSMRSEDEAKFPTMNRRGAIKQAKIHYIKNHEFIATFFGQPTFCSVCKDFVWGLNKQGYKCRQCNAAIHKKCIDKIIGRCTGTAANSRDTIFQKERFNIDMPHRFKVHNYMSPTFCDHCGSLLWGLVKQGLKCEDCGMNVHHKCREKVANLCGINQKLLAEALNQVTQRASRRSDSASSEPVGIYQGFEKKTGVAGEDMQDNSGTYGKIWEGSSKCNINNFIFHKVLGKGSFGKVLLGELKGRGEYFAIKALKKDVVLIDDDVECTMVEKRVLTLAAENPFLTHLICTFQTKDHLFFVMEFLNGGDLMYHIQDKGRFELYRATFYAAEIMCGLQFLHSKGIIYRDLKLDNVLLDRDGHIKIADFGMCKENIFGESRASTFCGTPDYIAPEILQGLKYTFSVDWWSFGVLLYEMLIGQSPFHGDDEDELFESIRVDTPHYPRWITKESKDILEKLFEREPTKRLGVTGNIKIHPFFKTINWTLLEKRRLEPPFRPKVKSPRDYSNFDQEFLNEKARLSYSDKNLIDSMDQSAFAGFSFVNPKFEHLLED
The target of test [5] is Protein kinase C alpha type (Homo sapiens, UniProt P17252). The protocol: as §1

As a reminder, the IC50 is the concentration that inhibits the measured activity by half. Lower therefore signals higher potency.

Protein kinase C beta type, sequence (P05771 whole entry): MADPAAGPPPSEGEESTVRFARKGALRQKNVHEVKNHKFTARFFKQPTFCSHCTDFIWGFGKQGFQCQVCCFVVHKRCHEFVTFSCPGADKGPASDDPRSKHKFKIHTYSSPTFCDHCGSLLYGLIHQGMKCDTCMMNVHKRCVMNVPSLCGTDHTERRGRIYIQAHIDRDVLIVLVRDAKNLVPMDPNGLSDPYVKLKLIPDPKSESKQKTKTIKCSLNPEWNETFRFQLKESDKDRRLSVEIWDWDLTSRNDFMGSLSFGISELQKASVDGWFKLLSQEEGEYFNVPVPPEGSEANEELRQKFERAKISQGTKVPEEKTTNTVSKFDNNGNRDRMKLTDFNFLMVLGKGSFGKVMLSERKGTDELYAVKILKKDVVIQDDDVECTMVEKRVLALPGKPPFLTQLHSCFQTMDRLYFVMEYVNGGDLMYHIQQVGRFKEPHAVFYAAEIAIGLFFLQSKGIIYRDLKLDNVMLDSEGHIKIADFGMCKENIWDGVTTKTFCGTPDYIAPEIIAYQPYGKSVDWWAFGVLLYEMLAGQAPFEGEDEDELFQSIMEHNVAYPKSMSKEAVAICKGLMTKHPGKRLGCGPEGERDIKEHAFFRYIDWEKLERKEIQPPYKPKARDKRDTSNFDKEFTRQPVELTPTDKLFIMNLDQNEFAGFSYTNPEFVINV
Protein kinase C eta type, sequence (P24723 whole entry): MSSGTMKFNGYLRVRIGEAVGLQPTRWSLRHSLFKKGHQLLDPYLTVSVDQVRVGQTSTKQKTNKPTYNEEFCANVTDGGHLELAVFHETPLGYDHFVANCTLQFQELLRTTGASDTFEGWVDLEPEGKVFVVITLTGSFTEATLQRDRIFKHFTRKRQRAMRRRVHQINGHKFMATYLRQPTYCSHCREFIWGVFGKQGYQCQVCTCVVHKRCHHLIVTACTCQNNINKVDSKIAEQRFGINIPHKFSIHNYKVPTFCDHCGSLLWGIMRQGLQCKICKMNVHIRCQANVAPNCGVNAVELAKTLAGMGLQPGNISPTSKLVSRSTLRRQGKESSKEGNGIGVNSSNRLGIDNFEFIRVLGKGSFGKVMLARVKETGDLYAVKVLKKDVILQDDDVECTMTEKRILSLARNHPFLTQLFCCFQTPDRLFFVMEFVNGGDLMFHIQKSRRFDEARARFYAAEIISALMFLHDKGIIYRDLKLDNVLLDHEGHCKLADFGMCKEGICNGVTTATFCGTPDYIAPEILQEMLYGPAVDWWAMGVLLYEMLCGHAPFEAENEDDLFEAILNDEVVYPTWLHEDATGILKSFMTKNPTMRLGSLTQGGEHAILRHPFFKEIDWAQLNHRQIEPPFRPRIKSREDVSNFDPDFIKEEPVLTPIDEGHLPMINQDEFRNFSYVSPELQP

Take `COC(=O)c1cccc(O)c1Oc1c(O)cc(C(=O)O[C@@H]2CCC[C@H]2NC(=O)c2ccc(O)cc2)cc1O` [(1R,2R)-2-[(4-hydroxybenzene)amido]cyclopentyl 3,5-dihydroxy-4-[2-hydroxy-6-(methoxycarbonyl)phenoxy]benzoate]: the concentration for half-maximal inhibition (IC50) in test [1] was determined as 4 nM; in test [2] it was 300 nM; in test [3], 40 nM; in test [4], 5 nM; in test [5], 210 nM.
Regarding `COC(=O)c1cccc(O)c1Oc1c(O)cc(C(=O)O[C@H]2CCC[C@@H]2NC(=O)c2ccc(O)cc2)cc1O` [(1S,2S)-2-[(4-hydroxybenzene)amido]cyclopentyl 3,5-dihydroxy-4-[2-hydroxy-6-(methoxycarbonyl)phenoxy]benzoate], the IC50 in test [1] was found to be 400 nM; in test [2], 20000 nM; in test [3], 1800 nM; in test [4], 250 nM; in test [5], 4200 nM.

Values taken from BindingDB's records for doi:10.1016/0960-894X(95)00361-V (Sphinx Pharmaceuticals, 1995).
